Laboratory results taken from US10183944B2 (Asana Biosciences, LLC, priority 2011, dated 2019).
Counter-ions that a name gives are not always drawn.

Key:
JAK2 = JAK2 (Homo sapiens (Human), UniProt O60674); assay: Inhibition of enzymatic JAK2 kinase activity (TR-FRET); assay type: biochemical; conditions: read-out: IC50 JAK
Method in brief: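 TR-FRET read-out (Eu antibody donor, Ulight poly Glu-Tyr acceptor, 665/615 nm ratio) after a 60 min RT kinase reaction with ATP, begun following 30 min compound–enzyme preincubation. Stopped by EDTA; inhibition expressed as 100 minus % activity of positive control.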

[1] = biological target: Syk (356-635 amino acids) catalytic domain (Homo sapiens (Human), UniProt P43405); assay: Inhibition of enzymatic Syk kinase activity (radiometric); assay type: biochemical; conditions: read-out: IC50 Syk
Method in brief: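 Radiometric filter-binding format: 32P transfer from γ-32P-ATP onto pG4T, scintillation-counted after acid washes of P81 paper. Syk kinase domain (356-635), 0.035–7.5 ng per reaction, was exposed to compound for 30 minutes at room temperature before a 10-minute, 30° C. reaction with ATP (100 μM stock). Inhibition derived from counts with versus without compound.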

RBL2H3 cells = assay: Degranulation assay: β-hexosaminidase release during immune complex mediated degranulation; assay type: cell-based, rat; conditions: Rattus norvegicus, RBL-2H3, Assay Protocol B (96 well format); for inhibition at 1 µM: read-out: Degranulation % inhibition at 1 μM; for EC50: read-out: Degranulation EC50
Method in brief: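 Fluorometric β-NAG read-out (Ex 355, Em 460 nm; 30 min, RT) of supernatant after DNP-BSA stimulation (45–60 min) of anti-DNP IgE-sensitized RBL2H3 cells. Compounds (0.5% DMSO) added 15 min before antigen; degranulation expressed as % β-hexosaminidase release or inhibition.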

[2] = tested on: Collagen Induced Arthritis (CIA) in female Lewis rats; assay: In vivo chronic study: Collagen Induced Arthritis (CIA); design: species or system rat; conditions: 0.5 mg/Kg
Excerpt: Collagen Induced Arthritis (CIA) is a well characterized model of human rheumatoid arthritis (RA) that can be induced in susceptible animals following immunization with type II collagen (cII) in Freund's adjuvant. […] Pathophysiology of CIA consists of T cell component, as evidenced by increased infiltration of T-cells in joint synovium and also, by attenuation of CIA in T-cell deficient mice. CIA development involves B cell component too, as is evidenced by circulating cII antibody in disease animals and also, failure to develop the disease in xid mice/B cell deficient mice/CXCR5 null mice. […] See, Pine, “Inflammation and bone erosion are suppressed in models of rheumatoid arthritis following treatment with a novel Syk inhibitor”, Clin. Immunol., 2007, 124(3):244-57; Xiong cha, “Suppression of the onset and progression of collagen-induced arthritis in rats by QFGJS, a preparation from an anti-arthritic Chinese herbal formula”, J. Ethnopharmacology (2007) 110:39-48; and Stolina, “The evolving systemic and local biomarker milieu at different stages of disease progression in rat collagen induced arthritis”, Biomarkers (2008) 13(7-8):692-712, which are herein incorporated by reference.
Female Lewis rats (8 per group, 6-8 weeks old) were immunized on day 1 with type II collagen (Immunization grade Bovine type II; Chondrex; Cat #20021) emulsified with Complete Freund's Adjuvant (Sigma; Cat# F5881) at a final concentration of 1.2 mg/mL). For the initial immunization, the animals were injected at the base of the tail with 300 μg of the cII (0.25 mL/rat). A booster injection of the same type II collagen emulsified with Incomplete Freund's Adjuvant (Sigma, Cat #F5506) (0.25 mL/rat) was given to the animals on day 8 at the base of the tail (100 μg). The final cII concentration in the booster was […].
Animals with an arthritic score of ≥1 were grouped and dosing with test compound (30 mg/kg bid) or methotrexate (0.5 mg/kg) started between about day 12 to day 14, with daily dosing of their respective compounds continuing for 10 days.
Edema: Paw volumes are measured by Plethysmometry for the animals before induction of CIA (Basal readings) and on Day 1, 3, 6 and 9 of dosing period. Both hind paw volumes were measured and edema was calculated by subtracting from the basal mean.
Arthritic score: Animals were scored for the symptoms of arthritis every day starting from Day of onset of disease till the end of the study. Both the hind paws were scored and the total scores were averaged and compared with control. The scoring pattern was as follows:
The percent inhibition of Edema was calculated with respect to control by the formula: […]
The percent inhibition of Arthritic score was calculated with respect to control by the formula: […]
Means of different groups were compared with control using one way ANOVA followed by Dunnett's test. Significance is represented as follows.

Chain of JAK2 (O60674 808-1132): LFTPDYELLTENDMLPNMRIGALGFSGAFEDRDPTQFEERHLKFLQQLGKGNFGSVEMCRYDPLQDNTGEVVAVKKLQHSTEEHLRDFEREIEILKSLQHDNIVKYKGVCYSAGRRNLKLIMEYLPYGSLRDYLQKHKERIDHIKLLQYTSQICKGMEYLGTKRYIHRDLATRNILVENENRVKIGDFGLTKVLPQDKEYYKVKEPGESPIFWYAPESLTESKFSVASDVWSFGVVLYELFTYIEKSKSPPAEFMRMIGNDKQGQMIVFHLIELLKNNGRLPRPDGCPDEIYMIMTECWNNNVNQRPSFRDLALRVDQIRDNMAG

SMILES	IC50 (JAK2)	IC50 [1]	EC50 (RBL2H3 cells)	inhibition at 1 µM (RBL2H3 cells)	Percent inhibition of Edema (Day 9 of dosing) ([2]; Day 9 of dosing)	Percent inhibition of Arthritic score (Day 10 of dosing) ([2]; Day 10 of dosing)
N#CCC1CCN(c2nc(Nc3ccc(N4CCN(CC(O)CO)CC4)cc3)c3c(=O)[nH]ncc3n2)CC1 (centres unmarked) [Example 274, 2-(1-(4-((4-(4-(2,3-dihydroxypropyl)piperazin-1-yl)phenyl)amino)-5-oxo-5,6-dihydropyrimido[4,5-d]pyridazin-2-yl)piperidin-4-yl)acetonitrile]	< 0.01 µM	< 0.01 µM	0.081 µM	59%	–	–
O=c1[nH]ncc2nc(N3CCCCCC3)nc(Nc3ccc(N4CCN(CCF)CC4)cc3)c12 [Example 275, 2-(azepan-1-yl)-4-((4-(4-(2-fluoroethyl)piperazin-1-yl)phenyl)amino) pyrimido[4,5-d]pyridazin-5(6H)-one]	< 0.01 µM	< 0.01 µM	0.015 µM	73%	–	–
N#CCC1CCN(c2nc(Nc3ccc(N4CCN(CCF)CC4)cc3)c3c(=O)[nH]ncc3n2)CC1 [Example 276, 2-(1-(4-((4-(4-(2-fluoroethyl)piperazin-1-yl)phenyl)amino)-5-oxo-5,6-dihydropyrimido[4,5-d]pyridazin-2-yl)piperidin-4-yl)acetonitrile]	< 0.05 µM	< 0.01 µM	0.024 µM	91%	–	–
O=c1[nH]ncc2nc(N3CCCCCC3)nc(Nc3ccc(N4CCCC(O)C4)nc3)c12 (centres unmarked) [Example 277, 2-(azepan-1-yl)-4-((6-(3-hydroxypiperidin-1-yl)pyridin-3-yl)amino)pyrimido[4,5-d]pyridazin-5(6H)-one]	< 0.05 µM	< 0.01 µM	0.042 µM	74%	–	–
CN1CCN(C(=O)COc2ccc(Nc3nc(N4CCCCCC4)nc4cn[nH]c(=O)c34)cc2)CC1 [Example 283, 2-(azepan-1-yl)-4-((4-(2-(4-methylpiperazin-1-yl)-2-oxoethoxy)phenyl)amino)pyrimido[4,5-d]pyridazin-5(6H)-one]	< 0.01 µM	< 0.01 µM	0.039 µM	71%	–	–
N#CCC1CCN(c2nc(Nc3ccc(N4CCCC(CO)C4)cc3)c3c(=O)[nH]ncc3n2)CC1 (centres unmarked) [Example 284, 2-(1-(4-((4-(3-(hydroxymethyl)piperidin-1-yl)phenyl)amino)-5-oxo-5,6-dihydropyrimido[4,5-d]pyridazin-2-yl)piperidin-4-yl)acetonitrile]	< 0.01 µM	< 0.01 µM	0.021 µM	92%	–	–
COC1CCN(c2ccc(Nc3nc(N4CCC(CC#N)CC4)nc4cn[nH]c(=O)c34)cc2)CC1 [Example 287, 2-(1-(4-((4-(4-methoxypiperidin-1-yl)phenyl)amino)-5-oxo-5,6-dihydropyrimido[4,5-d]pyridazin-2-yl)piperidin-4-yl)acetonitrile]	< 0.05 µM	< 0.05 µM	0.02 µM	97%	–	–
O=c1[nH]ncc2nc(N3CCCCCC3)nc(Nc3ccc(OC4CCNCC4)cc3)c12 [Example 292, 2-(azepan-1-yl)-4-((4-(piperidin-4-yloxy)phenyl)amino)pyrimido[4,5-d]pyridazin-5(6H)-one hydrochloride]	< 0.01 µM	< 0.01 µM	0.083 µM	65%	–	–
CC(C)(CO)N1CCCN(c2ccc(Nc3nc(N4CCC(CC#N)CC4)nc4cn[nH]c(=O)c34)cc2)CC1 [Example 297, 2-(1-(4-((4-(4-(1-hydroxy-2-methylpropan-2-yl)-1,4-diazepan-1-yl)phenyl)amino)-5-oxo-5,6-dihydropyrimido[4,5-d]pyridazin-2-yl)piperidin-4-yl)acetonitrile]	< 0.05 µM	< 0.01 µM	0.018 µM	99%	–	–
CN(Cc1cnc2nc(N)nc(N)c2n1)c1ccc(C(=O)N[C@@H](CCC(=O)O)C(=O)O)cc1 [Methotrexate, methotrexate, reference compound]	–	–	–	–	6	15

Further lines, with some results ahead:

IC50 (JAK2)	IC50 [1]	EC50 (RBL2H3 cells)	SMILES	inhibition at 1 µM (RBL2H3 cells)	Percent inhibition of Edema (Day 9 of dosing) ([2]; Day 9 of dosing)	Percent inhibition of Arthritic score (Day 10 of dosing) ([2]; Day 10 of dosing)
< 0.01 µM	< 0.01 µM	0.055 µM	O=C(O)CCc1ccc(Nc2nc(N3CCCCCC3)nc3cn[nH]c(=O)c23)cc1 [Example 304, 3-(4-((2-(azepan-1-yl)-5-oxo-5,6-dihydropyrimido[4,5-d]pyridazin-4-yl)amino)phenyl)propanoic acid]	70%	–	–
< 0.05 µM	< 0.01 µM	0.834 µM	N#CCC1CCN(c2nc(Nc3ccc(CCC(=O)O)cc3)c3c(=O)[nH]ncc3n2)CC1 [Example 305, 3-(4-((2-(4-(cyanomethyl)piperidin-1-yl)-5-oxo-5,6-dihydropyrimido[4,5-d]pyridazin-4-yl)amino)phenyl)propanoic acid]	17%	–	–
< 0.01 µM	< 0.01 µM	0.015 µM	O=c1[nH]ncc2nc(N3CCCCCC3)nc(Nc3ccc(N(CCO)CCO)cc3)c12 [Example 306, 2-(azepan-1-yl)-4-((4-(bis(2-hydroxyethyl)amino)phenyl)amino) pyrimido[4,5-d]pyridazin-5(6H)-one]	100%	–	–
< 0.01 µM	< 0.01 µM	0.312 µM	N#CCC1CCN(c2nc(Nc3ccc(N(CCO)CCO)cc3)c3c(=O)[nH]ncc3n2)CC1 [Example 307, 2-(1-(4-((4-(bis(2-hydroxyethyl)amino)phenyl)amino)-5-oxo-5,6-dihydropyrimido[4,5-d]pyridazin-2-yl)piperidin-4-yl)acetonitrile]	14%	–	–
< 0.01 µM	< 0.01 µM	0.062 µM	O=c1[nH]ncc2nc(N3CCCCCC3)nc(Nc3ccc(OC4CCN(CCO)CC4)cc3)c12 [Example 329, 2-(azepan-1-yl)-4-((4-((1-(2-hydroxyethyl)piperidin-4-yl)oxy)phenyl)amino) pyrimido[4,5-d]pyridazin-5(6H)-one]	69%	–	–
< 0.05 µM	< 0.01 µM	0.031 µM	O=c1[nH]ncc2nc(N3CCCCCC3)nc(Nc3ccc4[nH]nnc4c3)c12 [Example 339, 4-((1H-benzo[d][1,2,3]triazol-5-yl)amino)-2-(azepan-1-yl)pyrimido[4,5-d]pyridazin-5(6H)-one]	83%	–	–
